Here are results for 14 compounds from BindingDB's records for doi:10.1016/j.bmcl.2007.12.040 (Merck Research Laboratories, 2008).

A value given as a limit tells only on which side of the number the result lay.

Holding throughout (assay): Akt Inhibition Assay
What all share (details): pH 7.5; 22 °C

In assay [1] the target is RAC-alpha serine/threonine-protein kinase (Homo sapiens, UniProt P31749). The text has this:
(§1) Purified recombinant human Akt kinase was monitored for kinase activity in the presence or absence of inhibitors in a 96-well format. Detection was done by homogeneous time-resolved fluorescence (HTRF) using a europium-labeled Phospho (S21)-GSK3a antibody, and streptavidin-linked XL665 fluorophore which binds to the biotin moiety on the substrate peptide.

Assay [2] addresses RAC-beta serine/threonine-protein kinase (Homo sapiens, UniProt P31751).
Text: as §1

Assay [3] addresses RAC-gamma serine/threonine-protein kinase (Homo sapiens, UniProt Q9Y243).
Text: as §1

By IC50 is commonly meant the concentration that gives 50% inhibition.

RAC-beta serine/threonine-protein kinase, sequence (P31751 whole entry): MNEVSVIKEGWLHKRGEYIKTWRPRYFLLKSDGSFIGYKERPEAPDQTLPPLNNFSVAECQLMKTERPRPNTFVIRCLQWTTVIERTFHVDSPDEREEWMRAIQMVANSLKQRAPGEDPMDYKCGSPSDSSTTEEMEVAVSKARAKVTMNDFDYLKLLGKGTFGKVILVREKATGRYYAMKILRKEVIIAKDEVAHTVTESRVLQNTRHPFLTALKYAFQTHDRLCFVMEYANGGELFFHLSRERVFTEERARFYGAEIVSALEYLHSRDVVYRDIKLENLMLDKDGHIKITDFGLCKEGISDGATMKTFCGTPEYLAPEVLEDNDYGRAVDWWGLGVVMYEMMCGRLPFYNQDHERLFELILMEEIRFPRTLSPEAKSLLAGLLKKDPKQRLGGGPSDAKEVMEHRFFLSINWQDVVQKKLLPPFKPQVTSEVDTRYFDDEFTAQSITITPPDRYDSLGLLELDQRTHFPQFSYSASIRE
RAC-alpha serine/threonine-protein kinase, sequence (P31749 whole entry): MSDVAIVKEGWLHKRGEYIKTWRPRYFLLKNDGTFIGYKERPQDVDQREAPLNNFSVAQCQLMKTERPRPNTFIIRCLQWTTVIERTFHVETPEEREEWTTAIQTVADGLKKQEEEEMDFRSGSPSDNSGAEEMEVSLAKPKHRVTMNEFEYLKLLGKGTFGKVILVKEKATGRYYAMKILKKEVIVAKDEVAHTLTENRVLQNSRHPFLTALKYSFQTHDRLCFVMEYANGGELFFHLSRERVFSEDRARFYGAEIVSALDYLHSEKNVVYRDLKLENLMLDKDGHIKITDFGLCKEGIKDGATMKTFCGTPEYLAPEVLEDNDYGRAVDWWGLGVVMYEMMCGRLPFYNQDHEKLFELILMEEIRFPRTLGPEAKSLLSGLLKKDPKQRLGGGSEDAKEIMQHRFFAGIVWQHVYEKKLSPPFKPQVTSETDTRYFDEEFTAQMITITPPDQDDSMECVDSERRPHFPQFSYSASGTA
RAC-gamma serine/threonine-protein kinase, sequence (Q9Y243 whole entry): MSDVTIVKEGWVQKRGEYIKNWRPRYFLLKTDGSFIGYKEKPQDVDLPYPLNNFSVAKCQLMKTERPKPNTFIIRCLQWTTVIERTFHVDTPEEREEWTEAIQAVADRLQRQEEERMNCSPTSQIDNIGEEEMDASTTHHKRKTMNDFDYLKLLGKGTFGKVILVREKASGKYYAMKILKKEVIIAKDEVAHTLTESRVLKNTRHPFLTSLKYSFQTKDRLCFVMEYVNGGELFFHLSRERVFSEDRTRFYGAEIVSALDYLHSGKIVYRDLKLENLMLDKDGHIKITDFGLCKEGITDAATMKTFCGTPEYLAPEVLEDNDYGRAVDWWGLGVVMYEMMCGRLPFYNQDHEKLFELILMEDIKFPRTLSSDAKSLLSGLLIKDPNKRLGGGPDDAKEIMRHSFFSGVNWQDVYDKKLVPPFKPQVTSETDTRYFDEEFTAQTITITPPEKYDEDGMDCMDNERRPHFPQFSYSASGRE

For the compound `Nc1ncnc2c1cnn2C1CCN(Cc2ccc(-c3ncc(-c4nccs4)cc3-c3ccccc3)cc2)CC1` [1-[1-({4-[3-phenyl-5-(1,3-thiazol-2-yl)pyridin-2-yl]phenyl}methyl)piperidin-4-yl]-1H-pyrazolo[3,4-d]pyrimidin-4-amine], the IC50 in assay [1] came out at 264 nM; in assay [2], 64 nM.

Regarding `Nc1ncnc2c1cnn2C1CCN(Cc2ccc(-c3ncc(-c4nnc[nH]4)cc3-c3ccccc3)cc2)CC1` [1-[1-({4-[3-phenyl-5-(1H-1,2,4-triazol-3-yl)pyridin-2-yl]phenyl}methyl)piperidin-4-yl]-1H-pyrazolo[3,4-d]pyrimidin-4-amine], the IC50 in assay [1] was 182 nM; in assay [2], 101 nM.

On to `Nc1ncnc2c1cnn2C1CCN(Cc2ccc(-c3ncc(-c4ccccn4)cc3-c3ccccc3)cc2)CC1` [1-[1-({4-[3-phenyl-5-(pyridin-2-yl)pyridin-2-yl]phenyl}methyl)piperidin-4-yl]-1H-pyrazolo[3,4-d]pyrimidin-4-amine], for which the IC50 was found to be 1630 nM in assay [1] and 370 nM in assay [2].

`Nc1ncnc2c1cnn2C1CCN(Cc2ccc(-c3ncc(-c4ncccn4)cc3-c3ccccc3)cc2)CC1` [1-[1-({4-[3-phenyl-5-(pyrimidin-2-yl)pyridin-2-yl]phenyl}methyl)piperidin-4-yl]-1H-pyrazolo[3,4-d]pyrimidin-4-amine]: the IC50 in assay [1] came out at 306 nM; in assay [2] it was 62 nM.

In the case of `Nc1ncnc2c1cnn2C1CCN(Cc2ccc(-c3ncc(-c4ncon4)cc3-c3ccccc3)cc2)CC1` [1-[1-({4-[5-(1,2,4-oxadiazol-3-yl)-3-phenylpyridin-2-yl]phenyl}methyl)piperidin-4-yl]-1H-pyrazolo[3,4-d]pyrimidin-4-amine], the IC50 in assay [1] is 180 nM; in assay [2], 121 nM.

As for `Nc1nnc(-c2cnc(-c3ccc(CN4CCC(n5c(=O)[nH]c6ncccc65)CC4)cc3)c(-c3ccccc3)c2)s1` [1-[1-({4-[5-(5-amino-1,3,4-thiadiazol-2-yl)-3-phenylpyridin-2-yl]phenyl}methyl)piperidin-4-yl]-1H,2H,3H-imidazo[4,5-b]pyridin-2-one], the IC50 came out at 434 nM in assay [1] and 73 nM in assay [2].

Consider `Nc1nnc(-c2cnc(-c3ccc(CNCCC(=O)c4ccccc4N)cc3)c(-c3ccccc3)c2)s1` [3-[({4-[5-(5-amino-1,3,4-thiadiazol-2-yl)-3-phenylpyridin-2-yl]phenyl}methyl)amino]-1-(2-aminophenyl)propan-1-one], for which the IC50 in assay [1] amounted to 114 nM; in assay [2], 30 nM.

In the case of `Nc1nnc(-c2cnc(-c3ccc(CN4CCC(n5ncc6c(N)ncnc65)CC4)cc3)c(-c3ccccc3)c2)s1` [5-(6-{4-[(4-{4-amino-1H-pyrazolo[3,4-d]pyrimidin-1-yl}piperidin-1-yl)methyl]phenyl}-5-phenylpyridin-3-yl)-1,3,4-thiadiazol-2-amine], the values for the IC50 in assay [1] and in assay [2] were 126 nM and 22 nM, respectively.

Turning to `Nc1nnc(-c2cnc(-c3ccc(CN4CCC(n5cc(-c6cnccn6)cn5)CC4)cc3)c(-c3ccccc3)c2)s1` [5-{5-phenyl-6-[4-({4-[4-(pyrazin-2-yl)-1H-pyrazol-1-yl]piperidin-1-yl}methyl)phenyl]pyridin-3-yl}-1,3,4-thiadiazol-2-amine], the IC50 came to 172 nM in assay [1] and 51 nM in assay [2].

Turning to `Nc1nnc(-c2cnc(-c3ccc(CN4CCC(n5cc(-c6ccccn6)cn5)CC4)cc3)c(-c3ccccc3)c2)s1` [5-{5-phenyl-6-[4-({4-[4-(pyridin-2-yl)-1H-pyrazol-1-yl]piperidin-1-yl}methyl)phenyl]pyridin-3-yl}-1,3,4-thiadiazol-2-amine], the half-maximal inhibitory concentration (IC50) was determined as 214 nM in assay [1] and 90 nM in assay [2].

In the case of `Nc1nnc(-c2cnc(-c3ccc(CN4CCC(c5n[nH]c(-c6ccccn6)n5)CC4)cc3)c(-c3ccccc3)c2)s1` [5-{5-phenyl-6-[4-({4-[5-(pyridin-2-yl)-1H-1,2,4-triazol-3-yl]piperidin-1-yl}methyl)phenyl]pyridin-3-yl}-1,3,4-thiadiazol-2-amine], the values for the IC50 in assay [1] and in assay [2] were 85 nM and 22 nM, respectively.

On to `Nc1nnc(-c2cnc(-c3ccc(CN4CCC(c5cc(-c6ccccn6)[nH]n5)CC4)cc3)c(-c3ccccc3)c2)s1` [5-{5-phenyl-6-[4-({4-[5-(pyridin-2-yl)-1H-pyrazol-3-yl]piperidin-1-yl}methyl)phenyl]pyridin-3-yl}-1,3,4-thiadiazol-2-amine], for which the IC50 stood at 95 nM in assay [1] and 28 nM in assay [2].

With `Nc1nnc(-c2cnc(-c3ccc(CN4CCC(c5cc(-c6ccncc6)[nH]n5)CC4)cc3)c(-c3ccccc3)c2)s1` [5-{5-phenyl-6-[4-({4-[5-(pyridin-4-yl)-1H-pyrazol-3-yl]piperidin-1-yl}methyl)phenyl]pyridin-3-yl}-1,3,4-thiadiazol-2-amine], the values for the IC50 in assay [1] and in assay [2] were 123 nM and 38 nM, respectively.

`Nc1ncnc2c1ncn2C1CCN(Cc2ccc(-c3ncc(-c4nnn[nH]4)cc3-c3ccccc3)cc2)CC1` [9-[1-({4-[3-phenyl-5-(1H-1,2,3,4-tetrazol-5-yl)pyridin-2-yl]phenyl}methyl)piperidin-4-yl]-9H-purin-6-amine]: the IC50 in assay [1] was 210 nM; in assay [2] it was 105 nM; in assay [3] it was greater than 50 µM.
